Measured values taken from patent publication US9113629B2, “4-amino-6-(4-substituted-phenyl)-picolinates and 6-amino-2-(4-substituted-phenyl)-pyrimidine-4-carboxylates and their use as herbicides” (DOW AGROSCIENCES LLC, priority 2013, dated 2015).

System: Key Broadleaf Weed and Crop Species
Assay: Post-emergent Test II herbicidal activity (Table 5)
Format: in vivo
Settings: post-emergence, 336 h; ABUTH: velvetleaf (Abutilon theophrasti); 70 g ai/ha; post-emergent; 14 days after application; read-out: Visual Growth Reduction (%) 14 Days After Application ABUTH
In short: (§1)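 Visual injury ratings (0 = no injury, 100 = complete kill) were taken 14 d after treatment, relative to untreated plants. Seedlings at the first–second true leaf stage received overhead spray at 187 L/ha; the highest rate was serially diluted to ½×, ¼×, ⅛× and 1/16×.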

| Compound | pest or weed control at 70 g/ha [%] |
| --- | --- |
| C=Cc1c(C(=O)O)nc(-c2ccc(Br)cc2)c(F)c1N [Compound 117] | 95 to 100 |

Same assay, conditions: post-emergence, 336 h; ABUTH: velvetleaf (Abutilon theophrasti); 140 g ai/ha; post-emergent; 14 days after application; read-out: Visual Growth Reduction (%) 14 Days After Application ABUTH

| Compound | pest or weed control at 140 g/ha [%] |
| --- | --- |
| C=Cc1c(C(=O)O)nc(-c2ccc(Br)cc2)c(F)c1N [Compound 117] | 95 to 100 |

Same assay, conditions: post-emergence, 336 h; AMARE: redroot pigweed (Amaranthus retroflexus); 70 g ai/ha; post-emergent; 14 days after application; read-out: Visual Growth Reduction (%) 14 Days After Application AMARE

| Compound | pest or weed control at 70 g/ha [%] |
| --- | --- |
| C=Cc1c(C(=O)O)nc(-c2ccc(Br)cc2)c(F)c1N [Compound 117] | 95 to 100 |

Same assay, conditions: post-emergence, 336 h; AMARE: redroot pigweed (Amaranthus retroflexus); 140 g ai/ha; post-emergent; 14 days after application; read-out: Visual Growth Reduction (%) 14 Days After Application AMARE

| Compound | pest or weed control at 140 g/ha [%] |
| --- | --- |
| C=Cc1c(C(=O)O)nc(-c2ccc(Br)cc2)c(F)c1N [Compound 117] | 95 to 100 |

Same assay, conditions: post-emergence, 336 h; BRSNN: oilseed-rape, canola (Brassica napus); 70 g ai/ha; post-emergent; 14 days after application; read-out: Visual Growth Reduction (%) 14 Days After Application BRSNN

| Compound | pest or weed control at 70 g/ha [%] |
| --- | --- |
| C=Cc1c(C(=O)O)nc(-c2ccc(Br)cc2)c(F)c1N [Compound 117] | 75 to 84 |

Same assay, conditions: post-emergence, 336 h; BRSNN: oilseed-rape, canola (Brassica napus); 140 g ai/ha; post-emergent; 14 days after application; read-out: Visual Growth Reduction (%) 14 Days After Application BRSNN

| Compound | pest or weed control at 140 g/ha [%] |
| --- | --- |
| C=Cc1c(C(=O)O)nc(-c2ccc(Br)cc2)c(F)c1N [Compound 117] | 75 to 84 |

Same assay, conditions: post-emergence, 336 h; CHEAL: lambsquarters (Chenopodium album); 70 g ai/ha; post-emergent; 14 days after application; read-out: Visual Growth Reduction (%) 14 Days After Application CHEAL

| Compound | pest or weed control at 70 g/ha [%] |
| --- | --- |
| C=Cc1c(C(=O)O)nc(-c2ccc(Br)cc2)c(F)c1N [Compound 117] | 95 to 100 |

Same assay, conditions: post-emergence, 336 h; CHEAL: lambsquarters (Chenopodium album); 140 g ai/ha; post-emergent; 14 days after application; read-out: Visual Growth Reduction (%) 14 Days After Application CHEAL

| Compound | pest or weed control at 140 g/ha [%] |
| --- | --- |
| C=Cc1c(C(=O)O)nc(-c2ccc(Br)cc2)c(F)c1N [Compound 117] | 95 to 100 |

Same assay, conditions: post-emergence, 336 h; EPHHL: wild poinsettia (Euphorbia heterophylla); 70 g ai/ha; post-emergent; 14 days after application; read-out: Visual Growth Reduction (%) 14 Days After Application EPHHL

| Compound | pest or weed control at 70 g/ha [%] |
| --- | --- |
| C=Cc1c(C(=O)O)nc(-c2ccc(Br)cc2)c(F)c1N [Compound 117] | 95 to 100 |

Same assay, conditions: post-emergence, 336 h; EPHHL: wild poinsettia (Euphorbia heterophylla); 140 g ai/ha; post-emergent; 14 days after application; read-out: Visual Growth Reduction (%) 14 Days After Application EPHHL

| Compound | pest or weed control at 140 g/ha [%] |
| --- | --- |
| C=Cc1c(C(=O)O)nc(-c2ccc(Br)cc2)c(F)c1N [Compound 117] | 95 to 100 |

Same assay, conditions: post-emergence, 336 h; HELAN: sunflower (Helianthus annuus); 70 g ai/ha; post-emergent; 14 days after application; read-out: Visual Growth Reduction (%) 14 Days After Application HELAN

| Compound | pest or weed control at 70 g/ha [%] |
| --- | --- |
| C=Cc1c(C(=O)O)nc(-c2ccc(Br)cc2)c(F)c1N [Compound 117] | 85 to 94 |

Same assay, conditions: post-emergence, 336 h; HELAN: sunflower (Helianthus annuus); 140 g ai/ha; post-emergent; 14 days after application; read-out: Visual Growth Reduction (%) 14 Days After Application HELAN

| Compound | pest or weed control at 140 g/ha [%] |
| --- | --- |
| C=Cc1c(C(=O)O)nc(-c2ccc(Br)cc2)c(F)c1N [Compound 117] | 85 to 94 |

Same assay, conditions: post-emergence, 336 h; VIOTR: wild pansy (Viola tricolor); 70 g ai/ha; post-emergent; 14 days after application; read-out: Visual Growth Reduction (%) 14 Days After Application VIOTR

| Compound | pest or weed control at 70 g/ha [%] |
| --- | --- |
| C=Cc1c(C(=O)O)nc(-c2ccc(Br)cc2)c(F)c1N [Compound 117] | 0 to 29 |

Same assay, conditions: post-emergence, 336 h; VIOTR: wild pansy (Viola tricolor); 140 g ai/ha; post-emergent; 14 days after application; read-out: Visual Growth Reduction (%) 14 Days After Application VIOTR

| Compound | pest or weed control at 140 g/ha [%] |
| --- | --- |
| C=Cc1c(C(=O)O)nc(-c2ccc(Br)cc2)c(F)c1N [Compound 117] | 0 to 29 |

System: Key Grass and Sedge Weeds as well as Grass Crops
Assay: Post-emergent Test II herbicidal activity (Table 6)
Format: in vivo
Settings: Triticum aestivum, post-emergence, 336 h, TRZSS (wheat), application rate 70 g ai/ha, read-out: Visual Growth Reduction (%) 14 Days After Application, TRZSS
In short: as §1

| Compound | pest or weed control at 70 g/ha [%] |
| --- | --- |
| C=Cc1c(C(=O)O)nc(-c2ccc(Br)cc2)c(F)c1N [Compound 117] | 0 to 29 |

Same assay, conditions: Triticum aestivum, post-emergence, 336 h, TRZSS (wheat), application rate 140 g ai/ha, read-out: Visual Growth Reduction (%) 14 Days After Application, TRZSS

| Compound | pest or weed control at 140 g/ha [%] |
| --- | --- |
| C=Cc1c(C(=O)O)nc(-c2ccc(Br)cc2)c(F)c1N [Compound 117] | 0 to 29 |

Same assay, conditions: post-emergence, 336 h, CYPES: yellow nutsedge (Cyperus esculentus), application rate 70 g ai/ha, read-out: Visual Growth Reduction (%) 14 Days After Application, CYPES

| Compound | pest or weed control at 70 g/ha [%] |
| --- | --- |
| C=Cc1c(C(=O)O)nc(-c2ccc(Br)cc2)c(F)c1N [Compound 117] | 95 to 100 |

Same assay, conditions: post-emergence, 336 h, CYPES: yellow nutsedge (Cyperus esculentus), application rate 140 g ai/ha, read-out: Visual Growth Reduction (%) 14 Days After Application, CYPES

| Compound | pest or weed control at 140 g/ha [%] |
| --- | --- |
| C=Cc1c(C(=O)O)nc(-c2ccc(Br)cc2)c(F)c1N [Compound 117] | 95 to 100 |

Same assay, conditions: post-emergence, 336 h, DIGSA: crabgrass (Digitaria sanguinalis), application rate 70 g ai/ha, read-out: Visual Growth Reduction (%) 14 Days After Application, DIGSA

| Compound | pest or weed control at 70 g/ha [%] |
| --- | --- |
| C=Cc1c(C(=O)O)nc(-c2ccc(Br)cc2)c(F)c1N [Compound 117] | 0 to 29 |

Same assay, conditions: post-emergence, 336 h, DIGSA: crabgrass (Digitaria sanguinalis), application rate 140 g ai/ha, read-out: Visual Growth Reduction (%) 14 Days After Application, DIGSA

| Compound | pest or weed control at 140 g/ha [%] |
| --- | --- |
| C=Cc1c(C(=O)O)nc(-c2ccc(Br)cc2)c(F)c1N [Compound 117] | 0 to 29 |

Same assay, conditions: post-emergence, 336 h, ECHCG: barnyardgrass (Echinochloa crus-galli), application rate 70 g ai/ha, read-out: Visual Growth Reduction (%) 14 Days After Application, ECHCG

| Compound | pest or weed control at 70 g/ha [%] |
| --- | --- |
| C=Cc1c(C(=O)O)nc(-c2ccc(Br)cc2)c(F)c1N [Compound 117] | 75 to 84 |

Same assay, conditions: post-emergence, 336 h, ECHCG: barnyardgrass (Echinochloa crus-galli), application rate 140 g ai/ha, read-out: Visual Growth Reduction (%) 14 Days After Application, ECHCG

| Compound | pest or weed control at 140 g/ha [%] |
| --- | --- |
| C=Cc1c(C(=O)O)nc(-c2ccc(Br)cc2)c(F)c1N [Compound 117] | 75 to 84 |

Same assay, conditions: post-emergence, 336 h, ORYSA: rice (Oryza sativa), application rate 70 g ai/ha, read-out: Visual Growth Reduction (%) 14 Days After Application, ORYSA

| Compound | pest or weed control at 70 g/ha [%] |
| --- | --- |
| C=Cc1c(C(=O)O)nc(-c2ccc(Br)cc2)c(F)c1N [Compound 117] | 45 to 59 |

Same assay, conditions: post-emergence, 336 h, ORYSA: rice (Oryza sativa), application rate 140 g ai/ha, read-out: Visual Growth Reduction (%) 14 Days After Application, ORYSA

| Compound | pest or weed control at 140 g/ha [%] |
| --- | --- |
| C=Cc1c(C(=O)O)nc(-c2ccc(Br)cc2)c(F)c1N [Compound 117] | 45 to 59 |

Same assay, conditions: post-emergence, 336 h, SETFA: giant foxtail (Setaria faberi), application rate 70 g ai/ha, read-out: Visual Growth Reduction (%) 14 Days After Application, SETFA

| Compound | pest or weed control at 70 g/ha [%] |
| --- | --- |
| C=Cc1c(C(=O)O)nc(-c2ccc(Br)cc2)c(F)c1N [Compound 117] | 0 to 29 |

Same assay, conditions: post-emergence, 336 h, SETFA: giant foxtail (Setaria faberi), application rate 140 g ai/ha, read-out: Visual Growth Reduction (%) 14 Days After Application, SETFA

| Compound | pest or weed control at 140 g/ha [%] |
| --- | --- |
| C=Cc1c(C(=O)O)nc(-c2ccc(Br)cc2)c(F)c1N [Compound 117] | 45 to 59 |

Same assay, conditions: post-emergence, 336 h, SORVU: grain sorghum (Sorghum vulgare), application rate 70 g ai/ha, read-out: Visual Growth Reduction (%) 14 Days After Application, SORVU

| Compound | pest or weed control at 70 g/ha [%] |
| --- | --- |
| C=Cc1c(C(=O)O)nc(-c2ccc(Br)cc2)c(F)c1N [Compound 117] | 85 to 94 |

Same assay, conditions: post-emergence, 336 h, SORVU: grain sorghum (Sorghum vulgare), application rate 140 g ai/ha, read-out: Visual Growth Reduction (%) 14 Days After Application, SORVU

| Compound | pest or weed control at 140 g/ha [%] |
| --- | --- |
| C=Cc1c(C(=O)O)nc(-c2ccc(Br)cc2)c(F)c1N [Compound 117] | 85 to 94 |

Same assay, conditions: post-emergence, 336 h, ZEAMX: maize, corn (Zea mays), application rate 70 g ai/ha, read-out: Visual Growth Reduction (%) 14 Days After Application, ZEAMX

| Compound | pest or weed control at 70 g/ha [%] |
| --- | --- |
| C=Cc1c(C(=O)O)nc(-c2ccc(Br)cc2)c(F)c1N [Compound 117] | 45 to 59 |

Same assay, conditions: post-emergence, 336 h, ZEAMX: maize, corn (Zea mays), application rate 140 g ai/ha, read-out: Visual Growth Reduction (%) 14 Days After Application, ZEAMX

| Compound | pest or weed control at 140 g/ha [%] |
| --- | --- |
| C=Cc1c(C(=O)O)nc(-c2ccc(Br)cc2)c(F)c1N [Compound 117] | 60 to 74 |

System: not given
Assay: not given
Settings: not given

| melting point [°C] | Compound |
| --- | --- |
| 149 to 151 | C=Cc1c(C(=O)O)nc(-c2ccc(Br)cc2)c(F)c1N [Compound 117] |
